A short description of this test: DPPH radical scavenging antioxidant test (in vitro). It is filed as biochemical. The settings on record: 517 nm; for Inhibition (radical scavenging inhibition): 0.2 mL DPPH (0.75 mM), compound 3 μM in ethanol, 30 minutes incubation in the dark. As to the method:
The antioxidant properties of the 8-(3-flurobenzylideneamino)naphthalene-1,3-disulfonic acid compound were studied by adding 0.2 mL DPPH (0.75 mM)) 8-(3-flurobenzylideneamino)naphthalene-1,3-disulfonic acid (III) (3 μM) in ethanol. After 30 minutes of incubation in the dark, the absorbance was read against a blank at 517 nm. Ascorbic acid (vitamin C) was used as standard antioxidants (positive control). A blank sample was prepared by 0.2 ml of DPPH in 3 mL ethanol. A negative control sample was run using ethanol instead of the sample. The radical scavenging inhibition was calculated using the following equation: […]
The antioxidant activity for the synthesized compound is listed in Table 1, using Vitamin C as a reference.

For `O=S(=O)(O)c1cc(S(=O)(=O)O)c2c(/N=C/c3cccc(F)c3)cccc2c1` [Product III, 8-(3-flurobenzylideneamino)naphthalene-1,3-disulfonic acid], the “Inhibition (radical scavenging inhibition)” value was found to be 52%. Further, the “antioxidant potential in DPPH test compared to vitamin C (in words)” value (DPPH in vitro test, vitamin C as positive control) is recorded as “high potential as an antioxidant compared to vitamin C”.
On to `O=C1O[C@H]([C@@H](O)CO)C(O)=C1O` [vit c, Ascorbic acid, reference compound], for which the “Inhibition (radical scavenging inhibition)” value came out at 74%.

These data come from patent publication US11945768B1, “8-(3-flurobenzylideneamino)naphthalene-1,3-disulfonic acid as an antioxidant compound” (KING FAISAL UNIVERSITY, priority 2023, dated 2024).
